Assay results taken from patent US20230174571A1, “METHOD OF TREATING SHIP1-MEDIATED DISEASES USING PELOROL DERIVATIVES” (Zebrapeutics Inc., priority 2020, published 2023).

Tests used:
[1] = tested on: colitis in IL10−/− mice; experiment: Mouse colitis model (IL10 knock-out); format: in vivo; conditions: colitic IL10−/− mice
Procedure: Mouse Colitis Model. Colitis was induced in 6-8 week old BALB/cIL10−/−mice by administering the colonic contents of conventional C57BL/6 mice diluted 1:10 in PBS by oral gavage. Mouse weights and fecal consistencies were monitored and colitis allowed to develop for 6 weeks. Ethanol (Vehicle) and compound I-1 (3 mg/kg) was diluted in cage drinking water and dexamethasone (0.4 mg/kg) was administered every 2 days by oral gavage for 3 weeks. At the end of the dosing period, proximal, medial and distal colon sections were collected for paraffin embedding or stored in RNALater (Invitrogen, Mississauga, ON) for RNA extraction. Slides were prepared, stained with hematoxylin and eosin, and mounted by the UBC Department of Pathology and Laboratory Medicine Histochemistry Facility. Specimens were assigned pathological scores by two, independent, blinded investigators according to a method described by Madsen et al (Madsen et al., 2001). In brief, colonic inflammation was graded using a 4-point scale, scoring 0-3 for each of submucosal edema, immune cell infiltration, goblet cell ablation, and integrity of the epithelial layer. For analysis of mRNA expression, colon sections were homogenized and total RNA extracted as described above and analyzed by real time PCR using gene specific primers for IL17, CCL2, and GAPDH (normalization control).
To show in vivo anti-inflammatory effect of the compounds of the present disclosure, exemplary compound I-1 was administered to IL-10 knock-out mouse model of colitis (Keubler 2015). IL10 knock-out mice develop colitis when colonized with normal gut flora because IL10 is needed to temper the host immune response to intestinal commensal bacteria (Keubler 2015, Kuhn 1993). Colitis was initiated in IL10−/−mice by inoculating them with the freshly isolated colon contents of normal, specific pathogen free mice and allowed inflammation to develop for 6 weeks (Sydora 2003). Mice were then treated for 3 weeks with vehicle, 2 mg/kg compound I-1, or 0.4 mg/kg dexamethasone (anti-inflammatory steroidal drug used as positive control) prior to colon tissue collection for analyses. Hematoxylin and eosin stained sections were prepared from the proximal, mid and distal colons of mice, as well as from mice not inoculated with flora (no colitis group) (FIG. 8A).

[2] = tested on: LPS-induced TNFα; experiment: Mouse endotoxemia model: serum TNFα after i.p. LPS; format: in vivo; conditions: 1 h
Procedure: Mouse Endotoxemia Model. Groups of 6-8 week old BALB/c SHIP1+/+ and SHIP1−/−mice were intraperitoneally injected with either 1 or 5 mg/kg of LPS with or without co-administration of 1 mg/kg of IL10. Blood was drawn 1 hour later by cardiac puncture for determination of plasma cytokine levels by ELISA. ELISA kits were purchased from BD Biosciences (Mississauga, ON) for TNFα.
A role for STAT3 in mediating IL10 inhibition of TNFα in vivo was first described by Takeda et al (Takeda et al., 1999). […] This implies that a protein other than STAT3 might contribute to IL10 action. […] Presently, the ability of IL10 to inhibit LPS-induced inflammatory cytokine/chemokine expression in vivo is shown (FIG. 1A) in SHIP1^+/+ and SHIP1^−/− mice, and found IL10 inhibited TNFα in SHIP1^+/+ but not SHIP1^−/− mice. It was previously shown that SHIP1 phosphatase activity is allosterically stimulated by its product PI(3,4)P2 (Ong et al., 2007). […] Presently, it is shown that compound I-1 inhibits LPS-induced TNFα in SHIP1^+/+ but not SHIP1^−/− mice, showing that these compounds can mimic anti-inflammatory properties of IL10 and is indeed specific for SHIP1 (FIG. 1B).
Data represent means of *p<0.05, **p<0.01 when compared with LPS-alone-stimulated mice, ns=not significant. […] Fractions were collected every 5 min for measurement of TNFα levels Data are representative of two independent experiments.

[3] = tested on: DDIT4; experiment: DDIT4 expression in macrophages; format: cell-based; conditions: compound by itself
[4] = tested on: LPS-stimulated TNFα production in BMDM; experiment: Continuous flow culture of BMDM, TNFα kinetics; format: cell-based, mouse
Procedure: Production of bone marrow-derived macrophages. Bone marrow-derived macrophages (BMDMs) were generated by first collecting femurs and tibias from mice, and then flushing out the bone marrow through a 26-G needle. Extracted cells were plated, in Mac media supplemented with 5 ng/ml each of CSF-1 and GM-CSF (Stem Cell Technologies, Vancouver, BC), on a 10-cm tissue culture plate for 2 hours at 37° C. Non-adherent cells were collected and replated at 9×10^6 cells per 10-cm tissue culture plate. Cells were then cultured in the presence of CSF-1 and GM-CSF. Differentiated BMDMs were used after 7 to 8 days. All cells were maintained in a 37° C., 5% CO2, 95% humidity incubator.
Continuous Flow Cultures. The continuous flow apparatus facilitates constant stimulation and removal of cell supernatants to determine kinetic profiles of cytokine production over time. BMDMs were seeded at 3×10^6 cells per well in a 24-well tissue culture plate that had been coated with poly-L-lysine (Thermo Fisher Scientific, Nepean, ON) and rinsed with PBS. After overnight incubation, culture media was removed and Leibovitz's L-15 (L-15) media (Invitrogen, Burlington, ON) supplemented with 3% FCS, 10 μM β-mercaptoethanol and 150 μM monothioglycolate was added. Cells were allowed to equilibrate in L-15 media for 1 hour before being placed in the continuous flow apparatus. Stimulation solution was made in the same media equilibrated at 37° C., and was passed through a modified inlet fitted to the well by a syringe pump (New Era Syringe Pumps Inc., Farmingdale, N.Y.). A flow rate of 150 μl per minute was used. At the same time, cell supernatants were removed from the well at the same flow rate, and fractions were collected at 5-minute intervals over the course of 3 hours. These fractions were analyzed for secreted TNFα levels by ELISA.

[5] = 3 weeks treatment, RT-qPCR relative to GAPDH

With `Cc1cc(O)cc2c1C1(C)CCC3C(C)(C)CCCC3(C)C1C2` (stereo not drawn) [Compound I-1] the “reduction of histological and molecular markers of colon inflammation, compared with dexamethasone” value [1] was “as effective as dexamethasone”, the “pathology scores of colon sections” value ([1]; 3 weeks treatment, 2 mg/kg compound I-1 or 0.4 mg/kg dexamethasone, vs vehicle) was “significantly lower pathology scores” and the “CCL2 mRNA in colon” value [1, 5] was “significantly reduced”. For the same compound, the “IL17 mRNA in colon” value [1, 5] was “significantly reduced”, the “LPS-induced TNFα (serum)” value ([2]; SHIP1+/+ mice) was “inhibits” and the “LPS-induced TNFα (serum)” value ([2]; SHIP1−/− mice) was “not”.
For `CC12CCC3C(C)(C)C(N)CCC3(C)C1Cc1cc(O)cc(O)c12` (stereo not drawn) [Compound I-2], the DDIT4 expression [3] was “by itself able to induce DDIT4 expression”.
For “IL10: anti-inflammatory cytokine interleukin-10”, the TNFα levels ([4]; LPS-stimulated SHIP1+/+ and STAT3+/+ BMDM) was “reduces”, the “inhibition of 3-hour TNFα peak” value ([4]; LPS-stimulated STAT3−/− and SHIP1−/− (KO) BMDM) was “partly impaired” and the “inhibition of 1-hour TNFα peak” value ([4]; LPS-stimulated STAT3−/− and SHIP1−/− BMDM) was “completely impaired”. For the same compound, the “LPS-induced TNFα (serum)” value ([2]; SHIP1+/+ mice) was “inhibited” and the “LPS-induced TNFα (serum)” value ([2]; SHIP1−/− mice) was “not”.
